Source: patent US20230094568A1, “METHOD FOR SUPPRESSING DIFFERENTIATION OF PLURIPOTENT STEM CELLS” (KANEKA CORPORATION, priority 2020, published 2023)

Test system: Human iPS cell WTC-11 strain
Test: Quantitative real-time PCR of marker genes after suspension culture (Example 2)
Type: cell-based
Conditions: WTC-11, day 10 of suspension culture, inhibitor(s) in medium
Protocol: After the EDTA solution was sucked up, StemFit® AK02N medium was added to the dish, cells were detached with a cell scraper, and then dispersed into single cells by pipetting. […] Into a 6-well plate for suspension culture (Sumitomo Bakelite Co., Ltd.), 4 mL of the cell suspension was seeded per well. On a rotary shaker (Optima Co., Ltd.), the plate into which the cells had been seeded was rotated along a circle having a rotation width (diameter) of 25 mm in the horizontal plane at a speed of 90 rpm, and suspension culture was performed under an environment at 37° C. and 5% CO2. Subculture was performed on day 5 of culture as the day on which the cells were seeded was defined as day 0 of culture, and suspension culture was performed until day 10 of culture. Medium exchange was performed on day 2, 4, 7, and 9 of culture. […] On day 5 of culture, a cell aggregate and culture supernatant were collected from each well into a centrifuge tube, left to stand for about 5 minutes to precipitate the cell aggregate, and the culture supernatant was removed. […]
Quantitative real-time PCR analysis was performed with a procedure shown in the following. […] Quantitative real-time PCR analysis was carried out by using a TaqMan® QuantStudio3 real-time PCR system (Thermo Fisher Scientific).

SMILES	ACTB-normalized relative gene expression level (2^−ΔCt) OCT4
O=C(Nc1cccc2cccnc12)c1ccc(N2C(=O)[C@@H]3[C@H](C2=O)[C@@H]2C=C[C@H]3C2)cc1 [Comparative Example 2, 4-(1,3,3a,4,7,7a-hexahydro-1,3-dioxo-4,7-methano-2H-isoindol-2-yl)-N-8-quinolinyl-benzamide]	2.05
COc1ccc2c(c1)c(C1=C(c3c[nH]c4ccccc34)C(=O)NC1=O)cn2CCCN(C)C [Comparative Example 3, 3-[1-[3-(dimethylamino)propyl]-5-methoxy-1H-indol-3-yl]-4-(1H-indol-3-yl)-1H-pyrrole-2,5-dione]	3.30 × 10^−3
